# Patent US8815881B2 (Hoffmann-La Roche Inc., priority 2010, dated 2014)
# Assays:
# BACE2 enzyme ectodomain = BACE2 enzyme ectodomain (Homo sapiens (Human), UniProt Q9Y5Z0); assay: Fluorescent-peptide cleavage assay for BACE2 inhibition; format: biochemical; conditions: assay b): fluorescent-peptide cleavage, pH 4.5 (superscript b)
# Experimental: b) Fluorescent-Peptide Cleavage Assay for BACE2 Inhibition
# BACE2 enzyme ectodomain (derived from plasmid “pET17b-T7-hu proBACE2”) was prepared as described in Ostermann et al., “Crystal Structure of Human BACE2 in Complex with a Hydroxyethylamine Transition-state Inhibitor”, Journal of Molecular Biology 2006, 355, 249-261. The pro-enzyme was stored at 4° C. at a concentration of 70 μg/ml.
# A fluorescent peptide with the amino acid sequence WS EVNLD AEFRC-MR121 was synthesised and a stock solution of 1.5 mM in DMSO prepared and stored at −20° C. MR121 is a fluorophore with an excitation wavelength of 630 nm and emission wavelength of 695 nm. The MR121 fluorescence is quenched by the N-terminal tryptophan until the peptide is cleaved by BACE2.
# Assays were all made in a Corning 384-well black polystyrene non-binding surface microtitre plate with clear flat bottom and using a Plate:Vision (Perkin Elmer) fluorescence reader. To perform the assay an 80 nM solution of BACE2 was prepared in assay buffer (assay buffer is 100 mM Na-acetate; 20 mM EDTA; 0.05% BSA; pH 4.5) and incubated at room temperature for 1 hour to activate the enzyme. 39 μl of the activated BACE2 was placed in each assay well, followed by 1 μl compound to be tested at an appropriate concentration in 100% DMSO. The plate was then mixed and incubated for 10 minutes at room temperature. To start the assay, 10 μl of a 1.5 μM solution fluorescent peptide in assay buffer was added and the fluorescence intensity in the assay mixture measured at 695 nm with an excitation wavelength of 630 nm for 30 minutes.
# The assay readout is the rate of change of fluorescence intensity giving a relative measure of BACE2 activity. Small values correspond to high inhibition and larger values to low inhibition. To determine IC50 values (i.e. the concentration inhibiting the enzyme activity by 50%) of the compound for BACE2, typically, 15 assays were made with a range of concentrations chosen empirically to give low, high and intermediate inhibition of the protease. IC50 values were determined using these assay values generated for a range of inhibitor concentrations and the curve fitting software XLfit (IDBS) using the Sigmoidal Dose-Response Model.
# [1] = target: endogenous cellular BACE2 in the Ins1e rat cell line (Rattus norvegicus (Rat), UniProt Q6IE75); assay: Assay for BACE inhibition by measuring cellular TMEM27 cleavage (ELISA of shed hTMEM27 from INS-TMEM27 cells); format: cell-based; conditions: assay a): cellular TMEM27 cleavage, INS-TMEM27 cells (superscript a)
# Chain of endogenous cellular BACE2 in the Ins1e rat cell line (Q6IE75 63-514): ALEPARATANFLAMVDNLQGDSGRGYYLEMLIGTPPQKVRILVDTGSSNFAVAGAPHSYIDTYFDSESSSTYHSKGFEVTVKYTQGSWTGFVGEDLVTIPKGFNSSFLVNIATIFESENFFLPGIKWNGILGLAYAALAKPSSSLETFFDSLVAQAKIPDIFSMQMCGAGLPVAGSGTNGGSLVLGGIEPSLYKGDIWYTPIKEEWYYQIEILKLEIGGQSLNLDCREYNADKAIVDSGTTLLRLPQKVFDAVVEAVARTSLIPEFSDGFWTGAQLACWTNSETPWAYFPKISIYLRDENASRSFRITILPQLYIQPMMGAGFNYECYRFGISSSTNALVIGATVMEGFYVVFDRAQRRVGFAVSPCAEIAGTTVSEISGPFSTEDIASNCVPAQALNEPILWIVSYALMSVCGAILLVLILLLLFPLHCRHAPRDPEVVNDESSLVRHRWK
# Outline: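 INS1e-derived cells with doxycycline-inducible (TetOn) full-length human TMEM27 get inhibitor 2 h before 500 ng/ml doxycycline, then 46 h further culture at 37 °C. Shed TMEM27 in supernatant measured by sandwich ELISA (anti-extracellular-domain antibodies); EC50 from concentration-response curve fit.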
# Chain of BACE2 enzyme ectodomain (Q9Y5Z0 63-473): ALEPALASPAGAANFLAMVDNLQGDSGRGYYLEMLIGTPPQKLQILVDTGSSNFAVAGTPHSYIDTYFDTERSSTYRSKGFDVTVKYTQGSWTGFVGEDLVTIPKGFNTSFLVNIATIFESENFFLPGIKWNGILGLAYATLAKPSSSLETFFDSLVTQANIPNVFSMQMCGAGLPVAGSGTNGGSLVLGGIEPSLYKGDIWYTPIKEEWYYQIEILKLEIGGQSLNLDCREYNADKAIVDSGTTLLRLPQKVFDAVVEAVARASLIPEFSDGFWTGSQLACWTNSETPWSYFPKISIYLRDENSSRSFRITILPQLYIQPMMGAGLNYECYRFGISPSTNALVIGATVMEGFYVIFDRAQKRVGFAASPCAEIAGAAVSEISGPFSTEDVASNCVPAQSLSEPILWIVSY
IC50 (BACE2 enzyme ectodomain),IC50 [1],Compound
100 nM,,"CC(C)C(=O)Nc1ccc(F)c([C@@]2(C)N=C(N)N(C)C(=O)C2(C)C)c1 [Example 151, N-[3-((S)-2-Amino-1,4,5,5-tetramethyl-6-oxo-1,4,5,6-tetrahydro-pyrimidin-4-yl)-4-fluoro-phenyl]-isobutyramide]"
130 nM,,"CN1C(=O)C(C)(C)[C@@](C)(c2cc(Nc3ccc(C#N)cc3)ccc2F)N=C1N [Example 153, (S)-4-(3-(2-Amino-1,4,5,5-tetramethyl-6-oxo-1,4,5,6-tetrahydropyrimidin-4-yl)-4-fluorophenylamino)benzonitrile]"
13 nM,,"CN1C(=O)C(C)(C)[C@@](C)(c2cc(Nc3ccc(C#N)cc3OC(F)(F)F)ccc2F)N=C1N [Example 161, (S)-4-(3-(2-Amino-1,4,5,5-tetramethyl-6-oxo-1,4,5,6-tetrahydropyrimidin-4-yl)-4-fluorophenylamino)-3-(trifluoromethoxy)benzonitrile]"
140 nM,,"COc1ccc(Nc2ccc(F)c([C@@]3(C)N=C(N)N(C)C(=O)C3(C)C)c2)cn1 [Example 170, (S)-2-Amino-6-(2-fluoro-5-(6-methoxypyridin-3-ylamino)phenyl)-3,5,5,6-tetramethyl-5,6-dihydropyrimidin-4(3H)-one]"
130 nM,,"CN1C(=O)C(C)(C)[C@@](C)(c2cc(Nc3ccc(Cl)nc3)ccc2F)N=C1N [Example 176, (S)-2-Amino-6-(5-(6-chloropyridin-3-ylamino)-2-fluorophenyl)-3,5,5,6-tetramethyl-5,6-dihydropyrimidin-4(3H)-one]"
80 nM,,"CN1C(=O)C(C)(C)[C@@](C)(c2cc(Nc3cc(F)c(C#N)cc3F)ccc2F)N=C1N [Example 166, (S)-4-(3-(2-Amino-1,4,5,5-tetramethyl-6-oxo-1,4,5,6-tetrahydropyrimidin-4-yl)-4-fluorophenylamino)-2,5-difluorobenzonitrile]"
250 nM,,"CN1C(=O)C(C)(C)[C@@](C)(c2cc(Nc3cncc(C(F)(F)F)c3)ccc2F)N=C1N [Example 175, (S)-2-Amino-6-(2-fluoro-5-(5-(trifluoromethyl)pyridin-3-ylamino)phenyl)-3,5,5,6-tetramethyl-5,6-dihydropyrimidin-4(3H)-one]"
1800 nM,,"Cc1ccc(Nc2ccc(F)c([C@@]3(C)N=C(N)N(C)C(=O)C3(C)C)c2)cn1 [Example 171, (S)-2-Amino-6-(2-fluoro-5-(6-methylpyridin-3-ylamino)phenyl)-3,5,5,6-tetramethyl-5,6-dihydropyrimidin-4(3H)-one]"
62 nM,,"CN1C(=O)C(C)(C)[C@@](C)(c2cc(Nc3ccc(C#N)cc3C(F)(F)F)ccc2F)N=C1N [Example 163, (S)-4-(3-(2-Amino-1,4,5,5-tetramethyl-6-oxo-1,4,5,6-tetrahydropyrimidin-4-yl)-4-fluorophenylamino)-3-(trifluoromethyl)benzonitrile]"
110 nM,,"CN1C(=O)C(C)(C)[C@@](C)(c2cc(Nc3ccc(OCC(F)(F)F)nc3)ccc2F)N=C1N [Example 172, (S)-2-Amino-6-(2-fluoro-5-(6-(2,2,2-trifluoroethoxy)pyridin-3-ylamino)phenyl)-3,5,5,6-tetramethyl-5,6-dihydropyrimidin-4(3H)-one]"
120 nM,,"CN1C(=O)C(C)(C)[C@@](C)(c2cc(NC3CCCC3C#N)ccc2F)N=C1N (stereo partly drawn) [Example 162, 2-[3-((S)-2-Amino-1,4,5,5-tetramethyl-6-oxo-1,4,5,6-tetrahydro-pyrimidin-4-yl)-4-fluoro-phenylamino]-cyclopentanecarbonitrile]"
400 nM,,"CN1C(=O)C(C)(C)[C@@](C)(c2cc(Nc3ccc(C(F)(F)F)nc3)ccc2F)N=C1N [Example 173, (S)-2-Amino-6-(2-fluoro-5-(6-(trifluoromethyl)pyridin-3-ylamino)phenyl)-3,5,5,6-tetramethyl-5,6-dihydropyrimidin-4(3H)-one]"
180 nM,,"Cc1ccc(Nc2ccc(F)c([C@@]3(C)N=C(N)N(C)C(=O)C3(C)C)c2)cc1C#N [Example 169, 5-[3-((S)-2-Amino-1,4,5,5-tetramethyl-6-oxo-1,4,5,6-tetrahydro-pyrimidin-4-yl)-4-fluoro-phenylamino]-2-methyl-benzonitrile]"
35 nM,,"COc1cc(Cl)c(C)cc1Nc1ccc(F)c([C@@]2(C)N=C(N)N(C)C(=O)C2(C)C)c1 [Example 154, (S)-2-Amino-6-(5-(4-chloro-2-methoxy-5-methylphenylamino)-2-fluorophenyl)-3,5,5,6-tetramethyl-5,6-dihydropyrimidin-4(3H)-one]"
1090 nM,,"CN1C(=O)C(C)(C)[C@@](C)(c2cc(Nc3ccc(S(C)(=O)=O)cc3)ccc2F)N=C1N [Example 164, (S)-2-Amino-6-(2-fluoro-5-(4-(methylsulfonyl)phenylamino)phenyl)-3,5,5,6-tetramethyl-5,6-dihydropyrimidin-4(3H)-one]"
39 nM,,"CN1C(=O)C(C)(C)[C@@](C)(c2cc(Nc3cc(C#N)ccc3F)ccc2F)N=C1N [Example 165, (S)-3-(3-(2-Amino-1,4,5,5-tetramethyl-6-oxo-1,4,5,6-tetrahydropyrimidin-4-yl)-4-fluorophenylamino)-4-fluorobenzonitrile]"
73 nM,,"CN1C(=O)C(C)(C)[C@@](C)(c2cc(Nc3cccc(C#N)c3)ccc2F)N=C1N [Example 167, 3-[3-((S)-2-Amino-1,4,5,5-tetramethyl-6-oxo-1,4,5,6-tetrahydro-pyrimidin-4-yl)-4-fluoro-phenylamino]-benzonitrile]"
21 nM,,"COc1ccc(Cl)cc1Nc1ccc(F)c([C@@]2(C)N=C(N)N(C)C(=O)C2(C)C)c1 [Example 150, (S)-2-Amino-6-(5-(5-chloro-2-methoxyphenylamino)-2-fluorophenyl)-3,5,5,6-tetramethyl-5,6-dihydropyrimidin-4(3H)-one]"
150 nM,,"CN1C(=O)C(C)(C)[C@@](C)(c2cc(Nc3cncc(F)c3)ccc2F)N=C1N [Example 174, (S)-2-Amino-6-(2-fluoro-5-(5-fluoropyridin-3-ylamino)phenyl)-3,5,5,6-tetramethyl-5,6-dihydropyrimidin-4(3H)-one]"
14 nM,,"CN1C(=O)C(C)(C)[C@@](C)(c2cc(Nc3ccc(C#N)cc3Cl)ccc2F)N=C1N [Example 168, 4-[3-((S)-2-Amino-1,4,5,5-tetramethyl-6-oxo-1,4,5,6-tetrahydro-pyrimidin-4-yl)-4-fluoro-phenylamino]-3-chloro-benzonitrile]"
,16 nM,"CN1C(=O)C(C)(C)[C@@](C)(c2cc(NCC3CCC3)ccc2F)N=C1N [Example 70, (S)-2-Amino-6-[5-(C-cyclobutylmethyl-amino)-2-fluoro-phenyl]-3,5,5,6-tetramethyl-5,6-dihydro-3H-pyrimidin-4-one]"
,279 nM,"CN1C(=O)C(C)(C)[C@@](C)(c2cc(N[C@H]3CCC[C@@H]3O)ccc2F)N=C1N [Example 92, (S)-2-Amino-6-(2-fluoro-5-((1S,2S)-2-hydroxycyclopentylamino)phenyl)-3,5,5,6-tetramethyl-5,6-dihydropyrimidin-4(3H)-one]"
,74 nM,"CN1C(=O)C(C)(C)[C@@](C)(c2cc(NC(=O)C3CC3(C)C)ccc2F)N=C1N (stereo partly drawn) [Example 19, N-(3-((S)-2-Amino-1,4,5,5-tetramethyl-6-oxo-1,4,5,6-tetrahydropyrimidin-4-yl)-4-fluorophenyl)-2,2-dimethylcyclopropanecarboxamide]"
,1 nM,"CN1C(=O)C(C)(C)[C@@](C)(c2cc(NC3CC4CC3CC4O)ccc2F)N=C1N (stereo partly drawn) [Example 101, (6S)-2-Amino-6-(2-fluoro-5-(5-hydroxybicyclo[2.2.1]heptan-2-ylamino)phenyl)-3,5,5,6-tetramethyl-5,6-dihydropyrimidin-4(3H)-one]"
,46 nM,"COC(=O)c1ccc(Nc2ccc(F)c([C@@]3(C)N=C(N)N(C)C(=O)C3(C)C)c2)c(OC)c1 [Example 123, (S)-Methyl-4-(3-(2-amino-1,4,5,5-tetramethyl-6-oxo-1,4,5,6-tetrahydropyrimidin-4-yl)-4-fluorophenylamino)-3-methoxybenzoate]"
,2 nM,"CN1C(=O)C(C)(C)[C@@](C)(c2cc(Nc3ccnn3Cc3ccccc3)ccc2F)N=C1N [Example 107, (S)-2-Amino-6-(5-(1-benzyl-1H-pyrazol-5-ylamino)-2-fluorophenyl)-3,5,5,6-tetramethyl-5,6-dihydropyrimidin-4(3H)-one]"
